Measurements as given in US20260308145A1, “CDK2 INHIBITORS AND METHODS OF USING SAME” (Shenzhen lonova Life Science Co., Ltd., priority 2023, published 2026).

Key:
Assay type in all cases: biochemical
[1] = biological target: T1, CDK2/cyclinE1 (Homo sapiens, UniProt P24941); assay: Cyclin-dependent kinase activity assay (continuous ATP coupling assay), CDK2/cyclinE1; details: CDK2/cyclinE1 5 nM, ATP 300 μM, Rb copeptide 100 μM, 15 min preincubation, pH 7.5, 1% DMSO
T1 construct: purchased Carna Biosciences 04-165
Method: (§1) Cyclin-dependent kinase activity assay was measured by continuous ATP coupling assay in which ADP generated by kinase catalyzed phosphorylation was converted back to ATP by consuming phosphoenolpyruvate (PEP) and NADH catalyzed by pyruvate kinase/lactate dehydrogenase (PK/LDH). The assay compositions (see, Table 1) consist of one of the kinases, including CDK1/cyclinB1, CDK2/cyclinE1, CDK4/cyclinD3, and CDK6/cyclinD3 at the designated concentration, ATP at the corresponding Km of the kinase, copeptide and the ATP coupling system of PEP, NADH and PK/LDH. The assay was conducted in a reaction buffer of 20 mM Tris (pH 7.5) with 50 mM NaCl, 0.5 mM DTT and 0.04% BSA, and results were monitored continuously by fluorescence decrease of NADH with excitation at 340 nm and emission at 460 nm. Linear regression of the resulting reaction time traces gave reaction velocities.
(§2) For inhibition assay, compounds were first serial diluted in a 1:3 ratio from 10 μM to 0.05 nM using 10× reaction buffer. One of the CDK kinase was then introduced to compounds solution and incubated for 15 min. Finally, the compositions of ATP coupling system were introduced to the resulting solution to initiate the reaction. The final reaction mixture was in 1× reaction assay buffer with 1% DMSO. The half-maximal inhibition concentrations (IC50) for compounds were determined by fitting the plots of reaction velocity against compound concentration with 4-variable IC50 equation. The inhibition constants (Ki) were determined by fitting the same plots with quadratic/Morrison equation. Data were analyzed using commercially available software Graphpad Prism.
(§3) Exemplary results are presented as calculated IC50 values. • A: IC50≤10 nM • B: IC50>10 nM and IC50<100 nM • C: IC50≥100 nM

[2] = biological target: T2, CDK4/cyclinD3 (Homo sapiens, UniProt P11802); assay: Cyclin-dependent kinase activity assay (continuous ATP coupling assay), CDK4/cyclinD3; details: CDK4/cyclinD3 60 nM, ATP 500 μM, Rb copeptide 500 μM, 15 min preincubation, pH 7.5, 1% DMSO
T2 construct: purchased Carna Biosciences 04-105
T2 sequence (P11802 whole entry): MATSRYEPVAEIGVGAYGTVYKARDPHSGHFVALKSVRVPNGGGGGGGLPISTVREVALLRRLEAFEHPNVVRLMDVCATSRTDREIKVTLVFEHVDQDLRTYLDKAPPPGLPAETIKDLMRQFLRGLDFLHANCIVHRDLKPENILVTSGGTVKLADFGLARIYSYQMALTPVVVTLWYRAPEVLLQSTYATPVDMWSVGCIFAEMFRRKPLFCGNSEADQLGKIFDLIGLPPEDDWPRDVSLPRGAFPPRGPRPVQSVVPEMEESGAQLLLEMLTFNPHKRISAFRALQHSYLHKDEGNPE
T2 sequence (P30281 whole entry partner): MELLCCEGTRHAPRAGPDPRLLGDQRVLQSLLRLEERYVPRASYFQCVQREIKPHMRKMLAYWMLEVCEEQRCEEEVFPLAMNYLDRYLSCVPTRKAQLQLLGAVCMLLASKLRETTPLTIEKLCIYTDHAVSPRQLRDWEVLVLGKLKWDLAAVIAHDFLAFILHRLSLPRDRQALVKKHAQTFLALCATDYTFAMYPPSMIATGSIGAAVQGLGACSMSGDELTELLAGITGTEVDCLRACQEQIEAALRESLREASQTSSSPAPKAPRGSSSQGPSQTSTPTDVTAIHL
Method: as §1, §2, §3

[3] = biological target: T3, CDK6/cyclinD3 (Homo sapiens, UniProt Q00534); assay: Cyclin-dependent kinase activity assay (continuous ATP coupling assay), CDK6/cyclinD3; details: CDK6/cyclinD3 25 nM, ATP 500 μM, Rb copeptide 500 μM, 15 min preincubation, pH 7.5, 1% DMSO
T3 construct: purchased Carna Biosciences 04-107
T3 sequence (Q00534 whole entry): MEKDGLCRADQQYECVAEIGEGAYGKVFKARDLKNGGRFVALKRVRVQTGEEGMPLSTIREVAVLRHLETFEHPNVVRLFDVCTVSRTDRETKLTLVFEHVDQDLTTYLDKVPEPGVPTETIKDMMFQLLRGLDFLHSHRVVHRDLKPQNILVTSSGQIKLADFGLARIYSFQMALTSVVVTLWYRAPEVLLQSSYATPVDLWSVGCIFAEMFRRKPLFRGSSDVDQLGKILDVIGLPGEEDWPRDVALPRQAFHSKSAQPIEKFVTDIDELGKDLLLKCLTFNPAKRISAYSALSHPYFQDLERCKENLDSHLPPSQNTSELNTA
T3 sequence (P30281 whole entry partner): as the sequence (P30281 whole entry partner) above
Method: as §1, §2, §3

[4] = biological target: T4, CDK1/cyclinB1 (Homo sapiens, UniProt P06493); assay: Cyclin-dependent kinase activity assay (continuous ATP coupling assay), CDK1/cyclinB1; details: CDK1/cyclinB1 10 nM, ATP 200 μM, Histone1 copeptide 100 μM, 15 min preincubation, pH 7.5, 1% DMSO
T4 construct: purchased Carna Biosciences 04-102
T4 sequence (P06493 whole entry): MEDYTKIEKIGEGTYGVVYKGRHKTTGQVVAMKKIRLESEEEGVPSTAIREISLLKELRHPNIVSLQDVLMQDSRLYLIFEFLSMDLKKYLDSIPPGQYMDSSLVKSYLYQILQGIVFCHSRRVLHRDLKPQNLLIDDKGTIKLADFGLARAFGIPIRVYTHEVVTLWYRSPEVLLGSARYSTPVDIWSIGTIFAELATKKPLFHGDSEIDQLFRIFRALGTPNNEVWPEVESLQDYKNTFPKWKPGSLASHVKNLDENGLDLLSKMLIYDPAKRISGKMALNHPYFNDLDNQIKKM
T4 sequence (P14635 whole entry partner): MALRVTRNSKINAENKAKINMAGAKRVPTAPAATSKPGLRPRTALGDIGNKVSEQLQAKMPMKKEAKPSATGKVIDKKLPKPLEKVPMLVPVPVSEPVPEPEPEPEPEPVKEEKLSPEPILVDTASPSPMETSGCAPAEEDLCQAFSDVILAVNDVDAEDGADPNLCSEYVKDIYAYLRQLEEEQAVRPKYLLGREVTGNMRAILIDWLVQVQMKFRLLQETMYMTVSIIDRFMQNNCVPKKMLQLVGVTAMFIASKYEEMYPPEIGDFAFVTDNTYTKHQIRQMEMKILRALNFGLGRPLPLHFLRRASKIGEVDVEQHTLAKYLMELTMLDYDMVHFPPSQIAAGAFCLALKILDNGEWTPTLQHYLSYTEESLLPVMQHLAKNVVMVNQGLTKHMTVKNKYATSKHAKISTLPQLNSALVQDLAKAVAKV
Method: as §1, §2, §3

## CNS(=O)(=O)c1ccc(Nc2ncc(C(F)(F)F)c(-n3cc(C(C)(C)C(C)(C)O)cn3)n2)cc1 [Example 60]
[1]
  IC50: 10 to 100 nM
[2]
  IC50: 10 to 100 nM
[3]
  IC50: ≥ 100 nM
[4]
  IC50: 10 to 100 nM

## CC(C)(O)Cc1cnn(-c2nc(Nc3ccc(S(=O)(=O)NC4CC4)cc3)ncc2C(F)(F)F)c1 [Example 73]
[1]
  IC50: 10 to 100 nM
[2]
  IC50: 10 to 100 nM
[3]
  IC50: 10 to 100 nM
[4]
  IC50: ≥ 100 nM

## CNS(=O)(=O)c1ccc(Nc2ncc(C(F)(F)F)c(-n3cc(C4CCCC4)cn3)n2)cc1 [Example 11, 4-((4-(4-cyclopentyl-1H-pyrazol-1-yl)-5-(trifluoromethyl)pyrimidin-2-yl)amino)-N-methylbenzenesulfonamide]
[1]
  IC50: ≤ 10 nM
[2]
  IC50: ≤ 10 nM
[3]
  IC50: 10 to 100 nM
[4]
  IC50: 10 to 100 nM

## CNS(=O)(=O)c1ccc(Nc2ncc(C(F)(F)F)c(-n3cc(N4CCCC4=O)cn3)n2)cc1 [Example 88, N-methyl-4-[[4-[4-(2-oxopyrrolidin-1-yl)pyrazol-1-yl]-5-(trifluoromethyl)pyrimidin-2-yl]amino]benzene sulfonamide]
[1]
  IC50: 10 to 100 nM
[2]
  IC50: ≥ 100 nM
[3]
  IC50: ≥ 100 nM
[4]
  IC50: ≥ 100 nM

## CNS(=O)(=O)c1ccc(Nc2ncc(C(F)(F)F)c(-n3cc(C4CCCN4)cn3)n2)cc1 (single isomer, unassigned) [Example 92]
[1]
  IC50: ≤ 10 nM
[2]
  IC50: ≤ 10 nM
[3]
  IC50: 10 to 100 nM
[4]
  IC50: 10 to 100 nM

## NS(=O)(=O)c1ccc(Nc2ncc(C(F)(F)F)c(-n3cccn3)n2)cc1 [Example 18]
[1]
  IC50: ≤ 10 nM
[2]
  IC50: ≥ 100 nM
[3]
  IC50: ≥ 100 nM
[4]
  IC50: ≥ 100 nM

## CNS(=O)(=O)c1ccc(Nc2ncc(C(F)(F)F)c(-n3cc(C4CN(C)C4)cn3)n2)cc1 [Example 97]
[1]
  IC50: ≤ 10 nM
[2]
  IC50: 10 to 100 nM
[3]
  IC50: ≥ 100 nM
[4]
  IC50: 10 to 100 nM

## CNS(=O)(=O)c1ccc(Nc2ncc(C(F)(F)F)c(-n3cc(C4CCN(S(C)(=O)=O)CC4)cn3)n2)cc1 [Example 81]
[1]
  IC50: 10 to 100 nM
[2]
  IC50: 10 to 100 nM
[3]
  IC50: 10 to 100 nM
[4]
  IC50: 10 to 100 nM

## CN(C)CCNS(=O)(=O)c1ccc(Nc2ncc(C(F)(F)F)c(-n3cccn3)n2)cc1 [Example 43]
[1]
  IC50: ≤ 10 nM
[2]
  IC50: 10 to 100 nM
[3]
  IC50: 10 to 100 nM
[4]
  IC50: 10 to 100 nM

## CNS(=O)(=O)c1ccc(Nc2ncc(C(F)(F)F)c(-n3cc(C4(C#N)CC4)cn3)n2)cc1 [Example 51, 4-[[4-[4-(1-cyanocyclopropyl)pyrazol-1-yl]-5-(trifluoromethyl)pyrimidin-2-yl]amino]-N-methyl-benzene sulfonamide]
[1]
  IC50: 10 to 100 nM
[2]
  IC50: ≥ 100 nM
[3]
  IC50: ≥ 100 nM
[4]
  IC50: ≥ 100 nM

## CNS(=O)(=O)c1ccc(Nc2ncc(C(F)(F)F)c(-n3cc([C@H]4C[C@H](O)C4)cn3)n2)cc1 [Example 106, 4-((4-(4-((1r,3r)-3-hydroxycyclobutyl)-1H-pyrazol-1-yl)-5-(trifluoromethyl)pyrimidin-2-yl)amino)-N-methylbenzenesulfonamide]
[1]
  IC50: 10 to 100 nM
[2]
  IC50: ≥ 100 nM
[3]
  IC50: ≥ 100 nM
[4]
  IC50: ≥ 100 nM

## CC(C)(O)Cc1cnn(-c2nc(N[C@@H]3CCOC[C@H]3O)ncc2C(F)(F)F)c1 (single isomer, unassigned) [Example 8]
[1]
  IC50: ≥ 100 nM
[2]
  IC50: 10 to 100 nM
[3]
  IC50: 10 to 100 nM
[4]
  IC50: ≥ 100 nM

## [2H]C([2H])([2H])NS(=O)(=O)c1ccc(Nc2ncc(C(F)(F)F)c(-n3cc(CCC(C)(C)O)cn3)n2)cc1 [Example 61]
[1]
  IC50: ≤ 10 nM
[2]
  IC50: 10 to 100 nM
[3]
  IC50: ≥ 100 nM
[4]
  IC50: ≥ 100 nM

## CNS(=O)(=O)c1ccc(Nc2nccc(-n3cc(CC(C)(C)O)cn3)n2)cc1 [Example 67]
[1]
  IC50: 10 to 100 nM
[2]
  IC50: ≥ 100 nM
[3]
  IC50: ≥ 100 nM
[4]
  IC50: ≥ 100 nM

## CC(O)CNS(=O)(=O)c1ccc(Nc2ncc(C(F)(F)F)c(-n3cccn3)n2)cc1 (stereo not shown) [Example 110]
[1]
  IC50: ≤ 10 nM
[2]
  IC50: ≥ 100 nM
[3]
  IC50: ≥ 100 nM
[4]
  IC50: ≥ 100 nM

## O=S(=O)(NCCCCO)c1ccc(Nc2ncc(C(F)(F)F)c(-n3cccn3)n2)cc1 [Example 113]
[1]
  IC50: ≤ 10 nM
[2]
  IC50: ≥ 100 nM
[3]
  IC50: ≥ 100 nM
[4]
  IC50: ≥ 100 nM

## CNS(=O)(=O)c1ccc(Nc2ncc(Br)c(-n3cccn3)n2)cc1 [Example 25]
[1]
  IC50: ≤ 10 nM
[2]
  IC50: ≥ 100 nM
[3]
  IC50: ≥ 100 nM
[4]
  IC50: ≥ 100 nM

## CNS(=O)(=O)c1ccc(Nc2ncc(C(F)(F)F)c(-n3cc([C@H]4CCCN4)cn3)n2)cc1 [Example 91, (R)—N-methyl-4-((4-(4-(pyrrolidin-2-yl)-1H-pyrazol-1-yl)-5-(trifluoromethyl)pyrimidin-2-yl)amino)benzenesulfonamide]
[1]
  IC50: ≤ 10 nM
[2]
  IC50: 10 to 100 nM
[3]
  IC50: 10 to 100 nM
[4]
  IC50: 10 to 100 nM

## CC(C)(O)c1cnn(-c2nc(NC3CCN(S(C)(=O)=O)CC3)ncc2F)c1 [Example 1, 2-(1-(5-fluoro-2-((1-(methylsulfonyl)piperidin-4-yl)amino)pyrimidin-4-yl)-1H-pyrazol-4-yl)propan-2-ol]
[1]
  IC50: 10 to 100 nM
[2]
  IC50: 10 to 100 nM
[3]
  IC50: 10 to 100 nM
[4]
  IC50: ≥ 100 nM

## O=S(=O)(NC1CC(F)(F)C1)c1ccc(Nc2ncc(C(F)(F)F)c(-n3cccn3)n2)cc1 [Example 41]
[1]
  IC50: 10 to 100 nM
[2]
  IC50: ≥ 100 nM
[3]
  IC50: ≥ 100 nM
[4]
  IC50: ≥ 100 nM

## CNS(=O)(=O)c1ccc(Nc2ncc(F)c(-n3cccn3)n2)cc1 [Example 21]
[1]
  IC50: 10 to 100 nM
[2]
  IC50: ≥ 100 nM
[3]
  IC50: ≥ 100 nM
[4]
  IC50: ≥ 100 nM

## CS(=O)(=O)Nc1ccc(Nc2ncc(C(F)(F)F)c(-n3cccn3)n2)cc1 [Example 120]
[1]
  IC50: 10 to 100 nM
[2]
  IC50: ≥ 100 nM
[3]
  IC50: ≥ 100 nM
[4]
  IC50: ≥ 100 nM

## CNS(=O)(=O)c1ccc(Nc2ncc(C(F)(F)F)c(-n3cc(C4CCN(C)C4)cn3)n2)cc1 (single isomer, unassigned) [Example 96]
[1]
  IC50: ≤ 10 nM
[2]
  IC50: 10 to 100 nM
[3]
  IC50: 10 to 100 nM
[4]
  IC50: 10 to 100 nM

## CNS(=O)(=O)c1ccc(Nc2ncc(C(F)(F)F)c(-n3cc([C@H]4CCC[C@@H]4O)cn3)n2)cc1 (single isomer, unassigned) [Example 75]
[1]
  IC50: 10 to 100 nM
[2]
  IC50: 10 to 100 nM
[3]
  IC50: ≥ 100 nM
[4]
  IC50: ≥ 100 nM

## O=S(=O)(CCCO)c1ccc(Nc2ncc(C(F)(F)F)c(-n3cccn3)n2)cc1 [Example 130, 3-[4-[[4-pyrazol-1-yl-5-(trifluoromethyl)pyrimidin-2-yl]amino]phenyl]sulfonylpropan-1-ol]
[1]
  IC50: 10 to 100 nM
[2]
  IC50: ≥ 100 nM
[3]
  IC50: ≥ 100 nM
[4]
  IC50: ≥ 100 nM

## CNS(=O)(=O)c1ccc(Nc2ncc(C(F)(F)F)c(-n3cc(C4CCN(C)C4)cn3)n2)cc1 (single isomer, unassigned) [Example 95]
[1]
  IC50: ≤ 10 nM
[2]
  IC50: 10 to 100 nM
[3]
  IC50: ≥ 100 nM
[4]
  IC50: 10 to 100 nM

## CC1(Nc2ncc(C(F)(F)F)c(-n3cccn3)n2)CCN(S(C)(=O)=O)CC1 [Example 29]
[1]
  IC50: ≥ 100 nM
[2]
  IC50: ≥ 100 nM
[3]
  IC50: ≥ 100 nM
[4]
  IC50: ≥ 100 nM

## CNS(=O)(=O)c1ccc(Nc2ncc(C(F)(F)F)c(-n3cc(C4CCNC4)cn3)n2)cc1 (single isomer, unassigned) [Example 93]
[1]
  IC50: ≤ 10 nM
[2]
  IC50: 10 to 100 nM
[3]
  IC50: ≥ 100 nM
[4]
  IC50: 10 to 100 nM
